The source of these data is patent US20100249243A1, “NOVEL BETA-HYDROXYKETONES AND BETA-ALKOXYKETONES WITH ESTROGENIC ACTIVITY” (priority 2007, published 2010).

The target of experiment [1] is ERβ (Homo sapiens, UniProt Q92731). Kind of experiment: ERβ luciferase reporter (pERE2TATA-LUC) transactivation assay in transfected HEK293 cells. The conditions noted are these: for Emax at 10 µM: HEK293, 24 h; for ERβ receptor activation relative to 10 nM E2 corresponding 100: Table 1, sample concentration 10 μM, mean of at least three independent transfections, SEM typically <15%; for ERβ receptor activation relative to 10 nM E2 corresponding 100 / ERβ in vitro activity (receptor activation relative to 10 nM E2): 24 hours; for ERβ in vitro activity (receptor activation relative to 10 nM E2): Table 2, previously published compounds, test compound 10 μM. The experiment is classed as cell-based. On the set-up: expressed in transfected cells; host or cells: HEK293. As to the method:
(§1) All other reagents were of reagent grade from Sigma or Fluka. One day before transfection, HEK293 cells were seeded in 48-well plates (70×10^3 cells per well) in phenol-free Dulbecco's modified Eagle medium supplemented with 5% delipidated fetal bovine serum (Sigma) and antibiotics. After a medium change, the cells were transfected for 4 hours with 5 ng ERα or ERβ expression vector, 75 ng reporter plasmid pERE2TATA-LUC and 20 ng control plasmid pCMVβ by the calcium phosphate method. After transfection, the cells received fresh medium containing either vehicle (0.1% v/v) or test compound (10 μM). After 24 hours, the cells were washed, lysed and luciferase and β-galactosidase activities were determined from 20 μl of lysates with the Victor^2TM reader (PerkinElmer Wallac, Turku, Finland). […] The data are means±SEM of at least three independent transfections.

Experiment [2] deals with T1, ERα (Homo sapiens, UniProt P03372).
T1 sequence (P03372 1-595): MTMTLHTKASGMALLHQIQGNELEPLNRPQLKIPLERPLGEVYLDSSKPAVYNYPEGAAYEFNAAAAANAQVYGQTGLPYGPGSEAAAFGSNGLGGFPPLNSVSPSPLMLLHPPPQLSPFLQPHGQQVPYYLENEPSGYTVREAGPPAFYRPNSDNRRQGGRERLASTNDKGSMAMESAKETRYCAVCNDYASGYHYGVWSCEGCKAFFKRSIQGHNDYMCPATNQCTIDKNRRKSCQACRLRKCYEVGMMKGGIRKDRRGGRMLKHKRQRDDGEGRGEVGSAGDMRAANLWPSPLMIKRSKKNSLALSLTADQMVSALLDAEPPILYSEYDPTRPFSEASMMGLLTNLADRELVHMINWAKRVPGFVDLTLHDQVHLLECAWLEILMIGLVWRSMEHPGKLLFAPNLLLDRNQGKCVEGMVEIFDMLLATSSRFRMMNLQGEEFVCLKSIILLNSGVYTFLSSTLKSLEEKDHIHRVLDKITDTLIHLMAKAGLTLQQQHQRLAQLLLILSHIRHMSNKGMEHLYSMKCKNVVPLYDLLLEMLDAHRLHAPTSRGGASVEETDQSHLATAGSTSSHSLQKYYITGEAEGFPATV
Kind of experiment: ERα luciferase reporter (pERE2TATA-LUC) transactivation assay in transfected HEK293 cells. To be noted: 24 hours; for ERα receptor activation relative to 10 nM E2 corresponding 100: Table 1, sample concentration 10 μM, mean of at least three independent transfections, SEM typically <15%; for ERα in vitro activity (receptor activation relative to 10 nM E2): Table 2, previously published compounds, test compound 10 μM. The format is cell-based. On the set-up: expressed in transfected cells; host or cells: HEK293. As to the method:
as §1

[3] abbreviates: read-out: ERβ receptor activation relative to 10 nM E2 corresponding 100, Table 1, sample concentration 10 μM, mean of at least three independent transfections, SEM typically <15%.
Setting [4] is: read-out: ERβ in vitro activity (receptor activation relative to 10 nM E2), Table 2, previously published compounds, test compound 10 μM.

Like-named read-outs stand apart in the source and are kept apart here.

Chain of ERβ (Q92731 whole entry): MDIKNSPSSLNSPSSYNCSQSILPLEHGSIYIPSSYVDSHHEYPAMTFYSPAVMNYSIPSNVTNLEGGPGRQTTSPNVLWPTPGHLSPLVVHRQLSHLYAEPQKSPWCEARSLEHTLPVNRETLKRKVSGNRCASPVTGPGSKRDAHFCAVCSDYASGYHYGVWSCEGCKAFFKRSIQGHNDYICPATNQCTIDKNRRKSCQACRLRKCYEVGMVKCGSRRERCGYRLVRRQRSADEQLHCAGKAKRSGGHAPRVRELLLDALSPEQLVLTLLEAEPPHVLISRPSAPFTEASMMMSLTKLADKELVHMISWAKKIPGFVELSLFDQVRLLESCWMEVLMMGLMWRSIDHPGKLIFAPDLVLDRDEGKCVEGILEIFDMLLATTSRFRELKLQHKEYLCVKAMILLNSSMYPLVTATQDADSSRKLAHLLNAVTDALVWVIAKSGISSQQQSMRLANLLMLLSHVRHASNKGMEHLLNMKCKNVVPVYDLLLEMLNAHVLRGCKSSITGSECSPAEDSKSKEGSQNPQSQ

For the compound `O=C(CC(O)Cc1ccccc1)c1ccc(O)cc1` (stereo not shown) [Compound 18ab, 3-Hydroxy-1-(4-hydroxyphenyl)-4-phenyl-butan-1-one], the Emax at 10 µM in experiment [1] (setting [3]) was 58%. Further, the “ERα receptor activation relative to 10 nM E2 corresponding 100” value in experiment [2] is on record as 22.6%.

As for `O=C(CCc1ccccc1O)CC(O)Cc1ccccc1` (stereo not shown) [Compound 30ab, 5-Hydroxy-1-(2-hydroxy-phenyl)-6-phenyl-hexan-3-one], in experiment [1] (setting [3]), the Emax at 10 µM was found to be 5.1%. For the same compound, the “ERα receptor activation relative to 10 nM E2 corresponding 100” value in experiment [2] is reported as 45.2%.

In the case of `O=C(CCc1ccccc1)CC(O)Cc1ccc(F)cc1` (stereo not shown) [Compound 26ab, 6-(4-Fluorophenyl)-5-hydroxy-1-phenyl-hexan-3-one], in experiment [1] (setting [3]), the Emax at 10 µM amounted to 3.9%. The “ERα receptor activation relative to 10 nM E2 corresponding 100” value in experiment [2] is recorded as 35.0%.

Regarding `COc1ccccc1CC(=O)CC(O)CCc1cccc(F)c1` (single isomer, unassigned) [Compound 22a, 6-(3-Fluorophenyl)-4-hydroxy-1-(2-methoxyphenyl)-2-hexanone], in experiment [1], the “ERβ receptor activation relative to 10 nM E2 corresponding 100” value is listed as 3.4%. Besides, the “ERα receptor activation relative to 10 nM E2 corresponding 100” value in experiment [2] worked out at 8.4%.

As to `O=C(CCCc1ccc(O)cc1)CC(O)c1cccc(O)c1` (single isomer, unassigned) [Compound 35a, 1-Hydroxy-1-(3-hydroxy-phenyl)-6-(4-hydroxy-phenyl)-hexan-3-one], the “ERβ receptor activation relative to 10 nM E2 corresponding 100” value in experiment [1] is listed as 107.8%. Further, the “ERα receptor activation relative to 10 nM E2 corresponding 100” value in experiment [2] is recorded as 87.4%.

Turning to `COC(CC(=O)c1ccccc1)Cc1ccccc1` (stereo not shown) [Compound 61ab, 3-Methoxy-1,4-diphenyl-butan-1-one], the Emax at 10 µM in experiment [1] (setting [4]) amounted to 18.4%. The “ERα in vitro activity (receptor activation relative to 10 nM E2)” value in experiment [2] was determined as 0.3%.

As to `O=C(CCc1ccc(O)cc1)CC(O)Cc1ccc(F)cc1` (stereo not shown) [Compound 33ab, 6-(4-Fluoro-phenyl)-5-hydroxy-1-(4-hydroxy-phenyl)-hexan-3-one], the Emax at 10 µM in experiment [1] (setting [3]) was found to be 21.2%. Moreover, the “ERα receptor activation relative to 10 nM E2 corresponding 100” value in experiment [2] is 28.6%.

In the case of `O=C(CC(O)CCc1ccccc1)c1ccccc1` (single isomer, unassigned) [Compound 54b, 3-Hydroxy-1,5-diphenyl-pentan-1-one], in experiment [1], the “ERβ in vitro activity (receptor activation relative to 10 nM E2)” value amounted to 7.3%. For the same compound, the “ERα in vitro activity (receptor activation relative to 10 nM E2)” value in experiment [2] is given as 30.2%.

As for `O=C(CCc1ccccc1)CC(O)Cc1ccc(O)cc1` (stereo not shown) [Compound 25ab, 5-Hydroxy-6-(4-hydroxy-phenyl)-1-phenyl-hexan-3-one], the Emax at 10 µM in experiment [1] (setting [3]) was 6.1%. Further, the “ERα receptor activation relative to 10 nM E2 corresponding 100” value in experiment [2] is given as 51.4%.

As to `O=C(CCc1ccccc1)CC(O)c1ccccc1` (single isomer, unassigned) [Compound 56b, 1-Hydroxy-1,5-diphenyl-pentan-3-one], the “ERβ in vitro activity (receptor activation relative to 10 nM E2)” value in experiment [1] was determined as 2.8%. The “ERα in vitro activity (receptor activation relative to 10 nM E2)” value in experiment [2] turned out to be 25.3%.

`O=C(CCCc1ccc(O)cc1)CC(O)Cc1ccc(O)cc1` (single isomer, unassigned) [Compound 42a, 2-Hydroxy-1,7-di-(4-hydroxy-phenyl)-heptan-4-one]: in experiment [1], the “ERβ receptor activation relative to 10 nM E2 corresponding 100” value was 1.8%. Moreover, the “ERα receptor activation relative to 10 nM E2 corresponding 100” value in experiment [2] worked out at 15.4%.

Regarding `O=C(CCc1ccccc1)CC(O)Cc1ccccc1` (stereo not shown) [Compound 58ab, 5-Hydroxy-1,6-diphenyl-hexan-3-one], the Emax at 10 µM in experiment [1] (setting [4]) was 0.4%. Besides, the “ERα in vitro activity (receptor activation relative to 10 nM E2)” value in experiment [2] worked out at 12.8%.

Take `COc1ccc(CC(O)CC(=O)CCc2ccccc2)cc1` (single isomer, unassigned) [Compound 24a, 5-Hydroxy-6-(4-methoxyphenyl)-1-phenyl-hexan-3-one]: the “ERβ receptor activation relative to 10 nM E2 corresponding 100” value in experiment [1] was −0.8%. The “ERα receptor activation relative to 10 nM E2 corresponding 100” value in experiment [2] came out at 1.6%.

For `O=C(Cc1cccc(F)c1)CC(O)CCc1ccccc1` (stereo not shown) [Compound 21ab, 1-(3-Fluorophenyl)-4-hydroxy-6-phenyl-hexan-2-one], in experiment [1] (setting [3]), the Emax at 10 µM stood at 21.1%. Further, the “ERα receptor activation relative to 10 nM E2 corresponding 100” value in experiment [2] came to 25.1%.
